We go through 10 compounds from paper PMC8648984 (Angewandte Chemie (International ed. in English), 2021).

In brackets after ≈: the same amount, converted by molar mass. Several values for one entry are separate records, joined by “and”; a condition that tells them apart may be missing. Equal entries are not always repeated. Where two headings read alike, the source gives them in different places. Some results are limits rather than exact numbers.

Series [1] deals with CRBN (Homo sapiens, UniProt Q96SW2). The experiment in a line: CRBN fluorescence polarization assay. It is filed as binding. The conditions noted are these: for LE (ligand efficiency): from CRBN affinity; for IC50: read-out: CRBN IC50, fluorescence polarization, Cy5-conjugated lenalidomide probe. For orientation: Fluorescence polarisation rises when a labelled molecule tumbles more slowly, as on binding a larger partner.

Series [2] in a line: Chemical stability in HD-MB03 cell culture media. Type of series: physicochemical. The conditions noted are these: for t1/2 HD-MB03 cell media: cell media pH 7.7; for half-life: HD-MB03 cell culture media, pH 7.7.
A short description of series [3]: Stability in phosphate-buffered saline. Type of series: physicochemical.
Series [4] can be described thus: Metabolic stability in mouse liver microsomes. Type of series: in vitro ADME.
The nature of series [5]: Metabolic stability in human liver microsomes. It is filed as in vitro ADME. For orientation: Microsomes from liver hold many membrane-bound enzymes, among them those of drug oxidation.
Series [6] can be described thus: Aqueous solubility. The conditions noted are these: for solubility: aqueous medium (not further specified). Type of series: physicochemical.
In series [7] the test system is CaCo2 human colon adenocarcinoma cell line. Description: Caco-2 cell permeability. It is filed as in vitro ADME.
Series [8] in a line: Chemical stability in MV4–11 cell culture media. The conditions noted are these: for t1/2 MV4–11 cell media: pH 7.4, LCMS over 24 hours; for half-life: MV4-11 cell culture media, pH 7.4.
In series [9] the test system is MV4–11 cells. The experiment in a line: MV4–11 cell viability. It is filed as cell-based, human. The conditions noted are these: read-out: MV4–11 IC50; 3 days incubation, CellTiter-Glo. Background: Cellular ATP, detected with luciferase, serves as a proxy for viable cell number.
Series [10] deals with HD-MB03 cells. Description: HD-MB03 cell viability. Type of series: cell-based, human. The conditions noted are these: read-out: HD-MB03 IC50.
The nature of series [11]: Plasma stability. Type of series: in vitro ADME.
Series [12] deals with BRD2 (Homo sapiens, UniProt P25440). The experiment in a line: BRD2 protein degradation in MV4–11 cells. Type of series: cell-based. The conditions noted are these: 100 nM, 4-hour incubation.
Series [13] concerns IKZF1 and CK1α. The experiment in a line: Degradation of classical IMiD neosubstrates. Type of series: cell-based.
The nature of series [14]: Caco-2 cell permeability. Type of series: in vitro ADME, human. The conditions noted are these: human, Caco-2.
Series [15] is described as follows: Chiral stability in cell media. Type of series: physicochemical. The conditions noted are these: 24 hours, 37°C.
For series [16] the following is noted: cited from earlier work.
Setting [17] is: 3 days incubation, CellTiter-Glo.

CRBN, sequence (Q96SW2 whole entry, species assumed): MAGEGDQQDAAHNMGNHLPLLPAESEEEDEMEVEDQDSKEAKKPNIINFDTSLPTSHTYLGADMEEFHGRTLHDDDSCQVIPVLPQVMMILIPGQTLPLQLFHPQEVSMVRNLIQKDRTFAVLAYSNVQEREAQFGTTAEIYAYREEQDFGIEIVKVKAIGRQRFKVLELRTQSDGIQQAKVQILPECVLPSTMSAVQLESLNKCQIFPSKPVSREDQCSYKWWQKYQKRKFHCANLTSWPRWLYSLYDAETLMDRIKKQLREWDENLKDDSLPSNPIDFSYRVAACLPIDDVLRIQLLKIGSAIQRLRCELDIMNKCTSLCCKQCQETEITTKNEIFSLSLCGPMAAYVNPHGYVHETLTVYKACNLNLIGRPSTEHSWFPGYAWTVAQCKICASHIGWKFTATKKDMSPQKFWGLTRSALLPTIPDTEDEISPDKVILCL
BRD2, sequence (P25440 whole entry): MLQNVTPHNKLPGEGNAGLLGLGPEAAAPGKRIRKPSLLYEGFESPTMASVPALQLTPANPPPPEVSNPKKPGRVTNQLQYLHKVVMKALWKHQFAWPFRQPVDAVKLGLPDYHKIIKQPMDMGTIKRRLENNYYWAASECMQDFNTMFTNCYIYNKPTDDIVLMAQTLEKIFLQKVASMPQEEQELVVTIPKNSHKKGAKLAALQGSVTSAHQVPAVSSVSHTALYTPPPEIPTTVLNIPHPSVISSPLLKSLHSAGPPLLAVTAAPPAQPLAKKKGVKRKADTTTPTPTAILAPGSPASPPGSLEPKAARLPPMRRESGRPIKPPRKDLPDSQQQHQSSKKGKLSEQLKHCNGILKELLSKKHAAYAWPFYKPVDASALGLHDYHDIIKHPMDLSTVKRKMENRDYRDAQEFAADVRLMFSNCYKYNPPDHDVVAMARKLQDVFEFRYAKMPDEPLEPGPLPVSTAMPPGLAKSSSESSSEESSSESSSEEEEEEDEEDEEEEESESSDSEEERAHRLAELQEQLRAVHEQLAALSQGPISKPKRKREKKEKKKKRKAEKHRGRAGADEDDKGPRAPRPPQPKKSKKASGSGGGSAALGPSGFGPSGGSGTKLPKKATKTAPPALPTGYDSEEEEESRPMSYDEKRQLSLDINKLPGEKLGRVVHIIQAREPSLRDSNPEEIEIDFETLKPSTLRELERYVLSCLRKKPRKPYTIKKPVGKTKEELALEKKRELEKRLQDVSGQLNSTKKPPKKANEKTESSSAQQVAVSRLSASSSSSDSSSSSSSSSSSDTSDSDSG

For `Nc1ccc(C2CCC(=O)NC2=O)cc1` (centres unmarked) [2c], in series [1], the “LE (ligand efficiency)” value was 0.64 and the IC50 was found to be 0.123 ± 0.066 µM. The “t1/2 HD-MB03 cell media” value in [2] was 16.4 ± 0.3 h. Besides, the “t1/2 PBS” value in series [3] is reported as more than 48 h. Also, the “t1/2 mLM” value in series [4] (microsomes) stood at 23.19 ± 1.63 h. In [5] (microsomes), the “t1/2 hLM” value stood at 15.66 ± 4.78 h. Also, the “Sol. (aqueous solubility)” value in series [6] came out at 148.5 ± 4.7 µM. In series [7], the “CaCo2 Papp” value was 15.72 ± 0.94 ×10⁻⁶ cm/s. For the same compound, in [8] (37°C), the “t1/2 MV4–11 cell media” value is given as more than 24 h.
Turning to `Cc1sc2c(c1C)C(c1ccc(Cl)cc1)=N[C@@H](CC(=O)NCCCCNC(=O)COc1cccc3c1C(=O)N(C1CCC(=O)NC1=O)C3=O)c1nnc(C)n1-2` (some centres unmarked) [4a], the “t1/2 HD-MB03 cell media” value in [2] turned out to be 2.1 ± 0.3 h. Further, in series [3], the “t1/2 PBS” value is 12.3 ± 0.6 h. Also, in [4] (microsomes), the “t1/2 mLM” value amounted to 0.13 ± 0.01 h. In series [6], the “Sol. (aqueous solubility)” value is 53.5 ± 0.3 µM. The “CaCo2 Papp” value in [7] was found to be 1.16 ± 0.47 ×10⁻⁶ cm/s. Also, the IC50 in series [9] is 0.0061 ± 0.00156 µM; in series [10] (setting [17]) it was 1.24 µM; in series [10] (7 days incubation), more than 4 µM. Further, the “plasma stability t1/2” value in series [11] stood at 3.27 ± 0.25 h. Further, in series [12], the “depletion of BRD2 protein” value was more than 90%. Further, in [13], the “degradation of IMiD neosubstrates IKZF1 and CK1α” value was “Neither of the two PROTACs degraded classical IMiD neosubstrates”. For the same compound, the “t1/2 MV4–11 cell media” value in series [8] (37°C) is 4.2 ± 0.8 h.
With `Nc1cccc2c1C(=O)N(C1CCC(=O)NC1=O)C2=O` (centres unmarked) [1c, pomalidomide], the half-life was 5.4 ± 0.7 h in series [2]; 32.5 ± 1 h in [3]; 7.8 ± 0.69 h in series [4] (liver microsomes); more than 24 h in [5] (liver microsomes); 12.2 ± 0.5 h in series [8]. In series [6], this compound had a solubility of 84.6 ± 2.3 µM (≈ 23.1 µg/mL). In addition, in series [14], the Papp amounted to 36 ± 1.39 ×10⁻⁶ cm/s.
For the compound `COc1ccc([C@H]2CCC(=O)NC2=O)cc1` [(R)-2b], the IC50 in series [1] turned out to be 1.41 µM. Besides, the chiral inversion is reported as 21% in series [15] (HD-MB03 cell media) and 10% in series [15] (MV4–11 cell media).
For `COc1ccc(C2CCC(=O)NC2=O)cc1` (centres unmarked) [2b], in series [1], the “LE (ligand efficiency)” value was found to be 0.48; the IC50 was 3.15 µM and 3.16 µM. Moreover, the “t1/2 HD-MB03 cell media” value in [2] turned out to be 19.7 ± 0.1 h. Moreover, the “t1/2 PBS” value in [3] is more than 48 h. Moreover, the “t1/2 hLM” value in series [5] (microsomes) is more than 24 h. Besides, the “Sol. (aqueous solubility)” value in series [6] amounted to 89.0 ± 1.8 µM. The “CaCo2 Papp” value in series [7] stood at 81.8 ± 25.14 ×10⁻⁶ cm/s. Also, the “t1/2 MV4–11 cell media” value in [8] (37°C) was more than 24 h.
For `COc1ccc([C@@H]2CCC(=O)NC2=O)cc1` [(S)-2b], the IC50 in [1] was more than 25 µM. Moreover, the chiral inversion is 24% in [15] (HD-MB03 cell media) and 13% in [15] (MV4–11 cell media).
On to `O=C1CCC(c2ccccc2)C(=O)N1` (centres unmarked) [2a, phenyl glutarimide], for which the “t1/2 HD-MB03 cell media” value in [2] was determined as 20.8 ± 0.8 h. For the same compound, in [3], the “t1/2 PBS” value is recorded as more than 48 h. Besides, in [4] (liver microsomes), the “t1/2 mLM” value is recorded as more than 24 h. For the same compound, in [5] (liver microsomes), the “t1/2 hLM” value was more than 24 h. The “Sol. (aqueous solubility)” value in series [6] amounted to 76.2 ± 0.1 µM. Also, in series [7], the “CaCo2 Papp” value amounted to 21.55 ± 6.54 ×10⁻⁶ cm/s. For the same compound, the IC50 in series [9] and in series [10] (setting [17]) was more than 7 µM throughout. Moreover, the “t1/2 MV4–11 cell media” value in series [8] (37°C) was more than 24 h.
In the case of `Cc1sc2c(c1C)C(c1ccc(Cl)cc1)=N[C@@H](CC(=O)OC(C)(C)C)c1nnc(C)n1-2` [JQ1], the IC50 was determined as 0.083 ± 0.0103 µM in series [9] and 0.265 ± 0.0626 µM in series [10] (setting [17]).
In the case of `O=C1CCC(N2C(=O)c3ccccc3C2=O)C(=O)N1` (centres unmarked) [1a, thalidomide], the half-life is 1.8 ± 0.1 h in series [2]; 5.4 ± 0.2 h in [3]; 3.99 ± 0.01 h in series [4] (liver microsomes); 4.55 ± 0.61 h in series [5] (liver microsomes); 3.3 ± 0.4 h in series [8]. The compound also had a Papp in series [14] of 34.9 ± 1.46 ×10⁻⁶ cm/s. The half-life to hydrolysis in series [16] (pH 7) is 11 h; in [16] (pH 7.4), 5 h; in series [16] (pH 8), 1.25 h. For the same compound, the percentage remaining in series [8] (MV4–11 cell media, after 6 hours, 37°C) is listed as 20%. Besides, the level remaining result in series [8] (MV4–11 cell media, at 24 hours, 37°C) is listed as “below limits of detection”.
For `Nc1cccc2c1CN(C1CCC(=O)NC1=O)C2=O` (centres unmarked) [1b, lenalidomide], the half-life in [2] was 7.6 ± 0.6 h; in series [3], 33.6 ± 2.5 h; in [4] (liver microsomes), more than 24 h; in series [5] (liver microsomes) it was more than 24 h; in series [8], 11.7 h. In [6], this compound came in with a solubility of 111 ± 6.2 µM (≈ 28.7 µg/mL). This compound yielded a Papp in [14] of 4 ± 1.02 ×10⁻⁶ cm/s.

Usually IC50 stands for the point on the concentration scale where inhibition reaches its midpoint. One may read the half-life as the time in which the quantity being followed falls by half. A higher half-life goes with slow loss. As usually defined, the solubility is the concentration that dissolves in the medium under given conditions. In general, Papp refers to a coefficient for how fast a substance crosses the barrier. Lower therefore signals slow passage.
